Reference: patent US9566251B2, “Volatile anesthetic compositions and methods of use” (Board of Regents, The University of Texas System, priority 2008, dated 2017)
Several values for one entry are separate records, joined by “and”; a condition that tells them apart may be missing. Equal entries are not always repeated.

Key:
[1] = tested on: Sprague-Dawley rats; experiment: Hotplate test (thermal withdrawal latency) after intrathecal injection of volatile anesthetic; type: in vivo; settings: rat; for Thermal withdrawal latency, Average / Thermal withdrawal latency, Group Average: 2 microliters intrathecal; for Thermal withdrawal latency, Average: average per rat; for Thermal withdrawal latency, Group Average: group of four rats, saline control 8.33 seconds; for thermal latency time (analgesic effect): intrathecally delivered dose of 2 microliters
Protocol: This study was designed to evaluate efficacy of direct intrathecal injection of volatile anesthetic in reducing pain and providing analgesia. The study was conducted over a one (1) month period using the volatile anesthetics isoflurane and sevoflurane injected directly intrathecally or dissolved in saline as shown in the studies below. The subject animal used was the rat, since the rat has a well-established model of pain/analgesia testing. In particular, Sprague-Dawley rats weighing over 350 gm were used. The rats were anesthetized with pentobarbital (50 mg/kg), and the anesthetic depth of the animals was determined by corneal reflex and paw withdrawal reflex to a noxious stimulus.
[…]. A midline surgical dissection of the posterior neck muscles was performed to obtain access to the occipito-atlantoid membrane. This membrane was identified and then dissected. A sterile polyethylene catheter was introduced in the subarachnoid space until the lumbar enlargement of the spinal cord (approximately 7-8 cm measured in each animal). The surgical wound was closed, first suturing the neck muscles with 3-0 silk sutures and then closing the skin incision with staples.
After the surgery, the rats were moved to their cages and a radiant lamp was placed over the cages so that the rats would not undergo anesthetic-induced hypothermia. The rats were continuously monitored from the end of the surgery until they were fully awake. Rats showing any motor impairment after surgery were euthanized.
On the fifth day after surgery, those rats without wound infection or motor dysfunction were transported to the pain behavioral lab to enter the intrathecal study with volatile anesthetics. Twelve rats were selected for the study. All these rats had intrathecal catheters. Isoflurane (1-chloro-2,2,2-trifluoroethyl difluoromethyl ether) and sevoflurane (fluoromethyl 2,2,2-trifluoro-1-(trifluoromethyl)ethyl ether) were used as the halogenated ether compounds. Both of these are halogenated volatile anesthetics, with isoflurane manufactured by Baxter and sevoflurane manufactured by Abbott Laboratories. The 12 rats were divided into 3 groups of four rats each for study A and B.
In the second group, 2 microliters of isoflurane was injected via the intrathecal catheter into each rat. This catheter was also flushed with preservative-free normal saline. This group was then subjected to pain behavioral testing.
In the third group, 2 microliters of sevoflurane was injected via the intrathecal catheter into each rat. This catheter was also flushed with preservative-free normal saline. This group was then subjected to pain behavioral testing.
A “hotplate” behavioral test was used to evaluate pain perception and analgesia. The pain behavioral testing model used in these studies have been well established by Tony Yaksh. (See, for example Chaplan et al., 1994, J. Neurosci. Methods, 53:55-63; Yaksh et al., 2001, J. Appl. Physiol., 90:2386-2402; Kim and Chung, 1992, Pain, 50:355-363.; Sorkin et al., 2001, Anesthesiology, 95:965-973). This test involves determining how quickly a rat will withdraw its hind paw in response to a noxious stimulus such as a radiant heat source placed directly underneath its paw. This time for withdrawal is known as “thermal withdrawal latency”.
Rats were transferred for testing onto a modified Hargreaves apparatus with a heated glass plate maintained at 25° C. (see Hargreaves et al., 1998, Pain, 32:77-88). A focused projection bulb below the plate was aimed at the mid-plantar surface of the paw. A photodiode-activated timer measured the withdrawal latency, and a cutoff time of 25 seconds was used to prevent tissue damage. Thermal withdrawal latency to radiant heat was measured at 5 minutes and 30 minutes after each intrathecal injection. Each paw was tested three times, and the results were averaged. The below data was collected for both the right and left hind paws: […]

[2] = Isoflurane stability: weighing remaining isoflurane in uncapped vials over time; type: physicochemical; settings: uncapped vial in fume hood
Protocol: In the Examples that follow, the stability of isoflurane in the described compositions was determined in two ways. First, the compositions were examined for the presence of phase separation at the macroscopic level. Secondly, isoflurane content of the compositions was determined by weighing the remaining isoflurane in the composition when they were left uncapped over time. […] The other vials received varying amounts of isoflurane. They were left uncapped in the hood. Over time, the vials were weighed to see if the isoflurane stayed in the composition or had evaporated. The amount evaporated over time in the vehicle control was subtracted from that in the isoflurane-containing composition. The pure form of isoflurane is a volatile anesthetic. In order to assess the volatility of isoflurane, two vials received the indicated amounts of pure form isoflurane. The vials were placed in the chemical fume hood and left uncapped. The vials were weighed at the indicated times to determine the amount of evaporated isoflurane. As it is shown in the table below 0.7893 g isoflurane was evaporated within 3 hours, while 3.4825 g isoflurane took approximately 8 hrs to evaporate completely. These amounts of isoflurane are similar to the amounts of isoflurane that were used to prepare the isoflurane compositions in the Examples that follow.

[3] = tested on: rats; experiment: Plantar Heat Stimulation Test after subcutaneous injection into the hindpaw; type: in vivo; settings: rat, 100 μl subcutaneously into one hindpaw; for antinociceptive effect (paw withdrawal latency, treated vs untreated paw): cutoff 22 seconds
Protocol: Rats are assessed for response to thermal stimulation using the Plantar Heat Stimulation Test (i.e., radiant heat) (Planar Analgesia Instrument, Ugo Basile, Italy) by measuring paw withdrawal latency. 100 μl of pureform Isoflurane or 100 μl of 2% Lidocaine was injected subcutaneously into the planar surface of one hindpaw of each rat. For each rat, the untreated, contralateral hindpaw served as its own control.
After the rats acclimated for 15 minutes under acrylic boxes that allow minimal movement, a heat source was positioned beneath the mid-plantar surface of the hind paw. Withdrawal latency was defined as the period of time from the beginning of the thermal stimulation to the brisk withdrawal of the hind paw. To avoid tissue damage, a cutoff time of 22 seconds was set. Thermal stimulation was applied three times to each hind paw at an interstimulus interval of 3-5 minutes. Thermal withdrawal latency was assessed before and after the treatment. An increase in the withdrawal latency in the treated paw compared to the control paw was assessed as analgesic activity of the tested formulation.
For statistical comparison, student paired t-test analysis was used. Differences were considered significant at P<0.05 (# P<0.05 isoflurane versus control n=4; * P<0.05 lidocaine versus control n=3).

Row | time until isoflurane was evaporated ([2]; 0.7893 g pure form) [h] | time to evaporate completely ([2]; 3.4825 g pure form) | SMILES | Thermal withdrawal latency, Average ([1]; 5 minutes after injection) | Thermal withdrawal latency, Group Average ([1]; 5 minutes after injection) [s] | Thermal withdrawal latency, Average ([1]; 30 minutes after injection) | thermal latency time (analgesic effect) [1] | duration of antinociceptive effect [3] | antinociceptive effect (paw withdrawal latency, treated vs untreated paw) [3] | antinociceptive effect began at ([3]; time after administration) [min] | antinociceptive effect peaked at ([3]; time after administration) [min] | antinociceptive effect returned to baseline levels at ([3]; time after administration) [min]
1 | ≤ 3 | approximately 8 hrs | FC(F)OC(Cl)C(F)(F)F (centres unmarked) [Isoflurane, 1-chloro-2,2,2-trifluoroethyl difluoromethyl ether] | 19.25 s and 18.21 s and 18.63 s and 17.95 s | 18.51 | 9.48 s and 8.93 s and 10.52 s and 9.21 s | significantly increased | continued throughout the experiment | significant antinociceptive effect | 25 | – | –
2 | – | – | CCN(CC)CC(=O)Nc1c(C)cccc1C [Lidocaine] | – | – | – | – | – | significant antinociceptive effect | 5 | 15 | 45
3 | – | – | FCOC(C(F)(F)F)C(F)(F)F [Sevoflurane, fluoromethyl 2,2,2-trifluoro-1-(trifluoromethyl)ethyl ether] | 14.65 s and 13.82 s and 13.14 s and 12.98 s | 13.65 | 8.61 s and 8.35 s and 8.89 s and 9.54 s | significantly increased | – | – | – | – | –
